{"source": "paper PMC10867212", "about": "“Comparative pharmacokinetics of polymyxin B in critically ill elderly patients with extensively drug-resistant gram-negative bacteria infections” (Frontiers in Pharmacology, 2024)", "key": {"[1]": {"assay": "Steady-state plasma pharmacokinetics of intravenous polymyxin B in critically ill patients (non-compartmental analysis)", "type": "in vivo, human", "conditions": "for Normalized AUCss, 0–24 h: AUC adjusted to a daily dose of 1 mg/kg of TBW; for Cmin / Css, avg (average steady-state plasma concentration) / Cmax / AUC(0-t): HPLC-MS/MS; for Tmax: iv infusion of at least 1 h; for half-life: read-out: Half-time time (converted)", "text": "All adult patients admitted to the participating intensive care unit (ICU) in a teaching hospital between December 2021 and July 2023 were consecutively screened for entry into this prospective observational study. The ICU served a mixed population of medical, surgical, trauma, and neurologic patients. All critically ill patients (≥18 years) were eligible if they received intravenous PMB for more than 3 days (sulfate; PMB injection, Shanghai First Biochemical Pharmaceutical Co., Ltd., China) for the treatment of documented XDR-GNB infections. Exclusion criteria were 1) patients with anuria or who received blood purification therapy or extracorporeal membrane oxygenation during PMB treatment; 2) pregnant women. Informed written consent was obtained from each patient or a legal representative of the family. This study protocol was approved by the human ethics committees in Shandong Provincial Hospital Affiliated to Shandong First Medical University (protocol SWYX: No. 2021-356) and was carried out in accordance with the Declaration of Helsinki (2000) of the World Medical Association.\nPatients were enrolled on the first day of intravenous PMB administration. This study continued for 28 days or until discharge from the hospital or death. According to the patient’s age, the enrolled patients were divided into two groups: the elderly group (≥65 years) and the young group (<65 years).\nPMB was administrated intravenously with a loading dose of 2.0–2.5 mg/kg and maintenance doses of 1.25–1.5 mg/kg every 12 h, with at least 1 h infusion time. Calculation of both the loading dose and maintenance dose was based on the total body weight (TBW) of the patient. No dose adjustment was performed in patients with renal insufficiency and renal replacement therapy. Concurrent prescription of other potential nephrotoxic drugs, such as vancomycin, aminoglycoside, etc., was avoided as much as possible at any time during PMB treatment in our study. The initiation of PMB treatment as well as the concomitant antibiotics and their duration were at the discretion of the ICU physicians.\nFor steady-state PK assessment, blood samples were obtained after at least six doses of PMB. In each patient, six to eight blood samples (3 mL) were collected immediately 10 min before the infusion and 30 min and 1, 2, 3, 6, 8, and 12 h after the beginning of infusion in ethylenediaminetetraacetic acid anticoagulant tubes. Blood samples were immediately centrifuged at 3500 g for 10 min, and the plasma samples were collected and stored at −80°C until analysis. The PMB plasma concentrations were quantified by measuring both polymyxin B1 and B2 using validated high-performance liquid chromatography-tandem mass spectrometry.\nThe primary outcome was steady-state PMB exposure as reflected by AUCss, 0–24 h. Non-compartmental PK analysis was conducted using Phoenix WinNonlin software 8.3 (Certara, United States). The clinical variables were summarized as means with standard deviation for approximately normally distributed continuous variables or medians with interquartile range for non-normally distributed continuous variables and as frequencies and percentages for categorical variables. The normality of all data sets was determined using the Kolmogorov-Smirnov test. Categorical variables were analyzed by the chi-square or Fisher exact test, while continuous variables were analyzed by the two-tailed non-paired Student’s t-test or Mann-Whitney U test. […] All the analyses were performed with the use of the SPSS for Windows statistical program (version 22.0; IBM Corp., Armonk, NY)."}, "[2]": {"conditions": "ref Zavascki et al., 2008; Yun et al., 2015; cited from earlier work", "text": "PMB has been reported to accumulate in large quantities in the kidney, much more than in other organs, such as the heart, lungs, and brain. […] Considering that PMB is poorly recovered in urine (less than 1%) ([Zavascki et al., 2008]; [Yun et al., 2015]), it may be filtered from the glomerulus and reabsorbed in the proximal tubule."}, "[3]": {"conditions": "all patients (n = 23), iv 1.25–1.5 mg/kg q12h, steady state, mean ± SD, SD"}, "[4]": {"conditions": "elderly group ≥65 years (n = 17), iv 1.25–1.5 mg/kg q12h, steady state, mean ± SD, SD"}, "[5]": {"conditions": "young group <65 years (n = 6), iv 1.25–1.5 mg/kg q12h, steady state, mean ± SD, SD"}}, "note": "Read-outs that look alike come from different tables or passages of the source. Where a SMILES comes first, the peptide text is derived from it. Bridges are numbered along the chain shown (N, C = ends). [ ]: non-standard residue; d: D form. The star is where a group is joined. X1 = CC[C@H](C)CCCCC(=O)*; Dab = NCC[C@H](N)C(=O)O", "data": [{"compound": "CC[C@H](C)CCCCC(=O)N[C@@H](CCN)C(=O)N[C@H](C(=O)N[C@@H](CCN)C(=O)N[C@H]1CCNC(=O)[C@H]([C@@H](C)O)NC(=O)[C@H](CCN)NC(=O)[C@H](CCN)NC(=O)[C@H](CC(C)C)NC(=O)[C@@H](Cc2ccccc2)NC(=O)[C@H](CCN)NC1=O)[C@@H](C)O", "note": "[polymyxin B] (X1-[Dab]T[Dab][Dab][Dab][dF]L[Dab][Dab]T; lactam 4-C)", "values": [{"measurement": "Normalized AUCss, 0–24 h", "setting": "[1]; all patients (n = 23), steady state, mean ± SD, SD", "value": "52.31 ± 28.65", "unit": "mg·h/L"}, {"measurement": "Cmin", "setting": "[1]; [3]", "value": "2990 ± 1990", "unit": "ng/mL"}, {"measurement": "Css, avg (average steady-state plasma concentration)", "setting": "[1]; [3]", "value": "4200 ± 2230", "unit": "ng/mL"}, {"measurement": "Normalized AUCss, 0–24 h", "setting": "[1]; elderly group ≥65 years (n = 17), steady state, mean ± SD, SD", "value": "55.23 ± 28.51", "unit": "mg·h/L"}, {"measurement": "Cmax", "setting": "[1]; [4]", "value": "9230 ± 2840", "unit": "ng/mL"}, {"measurement": "Cmin", "setting": "[1]; [4]", "value": "3110 ± 1790", "unit": "ng/mL"}, {"measurement": "Css, avg (average steady-state plasma concentration)", "setting": "[1]; [4]", "value": "4320 ± 2110", "unit": "ng/mL"}, {"measurement": "Clearance per TBW", "setting": "[1]; elderly group ≥65 years (n = 17), per total body weight, iv, steady state, non-compartmental, mean ± SD, SD", "value": "0.6 ± 0.4", "unit": "mL/min/kg"}, {"measurement": "AUC(0-t)", "setting": "[1]; human, elderly group ≥65 years (n = 17), iv 1.25–1.5 mg/kg q12h after loading dose, steady state (≥6 doses), non-compartmental, mean ± SD, SD, read-out: AUCss, 0–12 h", "value": "51800 ± 25300", "unit": "ng·h/mL"}, {"measurement": "Cmax", "setting": "[1]; human, iv, all patients (n = 23), iv 1.25–1.5 mg/kg q12h, steady state, mean ± SD, SD, read-out: Cmax", "value": "9410 ± 3120", "unit": "ng/mL"}, {"measurement": "AUC(0-t)", "setting": "[1]; human, iv, all patients (n = 23), iv 1.25–1.5 mg/kg q12h, steady state, non-compartmental, mean ± SD, SD, read-out: AUCss, 0–24 h", "value": "71900 ± 41800", "unit": "ng·h/mL"}, {"measurement": "AUC(0-t)", "setting": "[1]; human, iv, all patients (n = 23), iv 1.25–1.5 mg/kg q12h after loading dose, steady state (≥6 doses), non-compartmental, mean ± SD, SD, read-out: AUCss, 0–12 h", "value": "50300 ± 27000", "unit": "ng·h/mL"}, {"measurement": "Tmax", "setting": "[1]; human, iv, all patients (n = 23), steady state, mean ± SD, SD", "value": "54.6 ± 29.4", "unit": "min"}, {"measurement": "clearance", "setting": "[1]; human, iv, all patients (n = 23), iv, steady state, non-compartmental, mean ± SD, SD, read-out: Clearance (converted)", "value": 41.5, "unit": "mL/min"}, {"measurement": "Vd", "setting": "[1]; human, iv, all patients (n = 23), iv, steady state, non-compartmental, mean ± SD, SD, read-out: Volume of distribution", "value": "24.7 ± 11.7", "unit": "L"}, {"measurement": "clearance", "setting": "[1]; human, iv, all patients (n = 23), per total body weight, iv, steady state, non-compartmental, mean ± SD, SD, read-out: Clearance per TBW (converted)", "value": 0.6, "unit": "mL/min/kg"}, {"measurement": "Vd", "setting": "[1]; human, iv, all patients (n = 23), per total body weight, iv, steady state, non-compartmental, mean ± SD, SD, read-out: Volume of distribution per TBW", "value": "0.37 ± 0.17", "unit": "L/kg"}, {"measurement": "AUC(0-t)", "setting": "[1]; human, iv, elderly group ≥65 years (n = 17), iv 1.25–1.5 mg/kg q12h, steady state, non-compartmental, mean ± SD, SD, read-out: AUCss, 0–24 h", "value": "76200 ± 41800", "unit": "ng·h/mL"}, {"measurement": "Tmax", "setting": "[1]; human, iv, elderly group ≥65 years (n = 17), steady state, mean ± SD, SD", "value": "56.5 ± 33.6", "unit": "min"}, {"measurement": "clearance", "setting": "[1]; human, iv, elderly group ≥65 years (n = 17), iv, steady state, non-compartmental, mean ± SD, SD, read-out: Clearance (converted)", "value": 39.5, "unit": "mL/min"}, {"measurement": "half-life", "setting": "[1]; human, iv, elderly group ≥65 years (n = 17), iv, steady state, non-compartmental, mean ± SD, SD", "value": "673 ± 323", "unit": "min"}, {"measurement": "Vd", "setting": "[1]; human, iv, elderly group ≥65 years (n = 17), iv, steady state, non-compartmental, mean ± SD, SD, read-out: Volume of distribution", "value": "25.5 ± 12.9", "unit": "L"}, {"measurement": "Vd", "setting": "[1]; human, iv, elderly group ≥65 years (n = 17), per total body weight, iv, steady state, non-compartmental, mean ± SD, SD, read-out: Volume of distribution per TBW", "value": "0.4 ± 0.19", "unit": "L/kg"}, {"measurement": "Cmax", "setting": "[1]; human, iv, young group <65 years (n = 6), iv 1.25–1.5 mg/kg q12h, steady state, mean ± SD, SD, read-out: Cmax", "value": "9890 ± 4070", "unit": "ng/mL"}, {"measurement": "AUC(0-t)", "setting": "[1]; human, iv, young group <65 years (n = 6), iv 1.25–1.5 mg/kg q12h, steady state, non-compartmental, mean ± SD, SD, read-out: AUCss, 0–24 h", "value": "59500 ± 43100", "unit": "ng·h/mL"}, {"measurement": "Tmax", "setting": "[1]; human, iv, young group <65 years (n = 6), steady state, mean ± SD, SD", "value": "49.8 ± 15.6", "unit": "min"}, {"measurement": "clearance", "setting": "[1]; human, iv, young group <65 years (n = 6), iv, steady state, non-compartmental, mean ± SD, SD, read-out: Clearance (converted)", "value": 47.5, "unit": "mL/min"}, {"measurement": "half-life", "setting": "[1]; human, iv, young group <65 years (n = 6), iv, steady state, non-compartmental, mean ± SD, SD", "value": "394 ± 69.6", "unit": "min"}, {"measurement": "Vd", "setting": "[1]; human, iv, young group <65 years (n = 6), iv, steady state, non-compartmental, mean ± SD, SD, read-out: Volume of distribution", "value": "22.3 ± 7.6", "unit": "L"}, {"measurement": "clearance", "setting": "[1]; human, iv, young group <65 years (n = 6), per total body weight, iv, steady state, non-compartmental, mean ± SD, SD, read-out: Clearance per TBW (converted)", "value": 0.617, "unit": "mL/min/kg"}, {"measurement": "Vd", "setting": "[1]; human, iv, young group <65 years (n = 6), per total body weight, iv, steady state, non-compartmental, mean ± SD, SD, read-out: Volume of distribution per TBW", "value": "0.29 ± 0.09", "unit": "L/kg"}, {"measurement": "AUCss, 0–24 h (range)", "setting": "[1]; range over the critically ill patients (n = 23), steady state", "value": "11300 to 151280", "unit": "ng·h/mL"}, {"measurement": "Normalized AUCss, 0–24 h", "setting": "[1]; young group <65 years (n = 6), steady state, mean ± SD, SD", "value": "44.03 ± 30.00", "unit": "mg·h/L"}, {"measurement": "Cmin", "setting": "[1]; [5]", "value": "2650 ± 2640", "unit": "ng/mL"}, {"measurement": "Css, avg (average steady-state plasma concentration)", "setting": "[1]; [5]", "value": "3880 ± 2750", "unit": "ng/mL"}, {"measurement": "Recovery in urine", "setting": "[2]", "value": "less than 1%"}]}]}
